Measured values from US20060205714A1, “Method of synthesis and isolation of solid N-desmethylclozapine and crystalline forms thereof” (priority 2004, published 2006).
Values belong to the molecule of their own block, whether it stands above or below them.

What was measured:
[1] = test system: Alzheimer's Disease patients; conditions: cited from earlier work
schizophrenics = conditions: cited from earlier work
[2] = Storage stability of the crystal forms (humidity, temperature, dry nitrogen); assay type: physicochemical; conditions: for conversion to hydrated or other crystalline forms on storage / stability under humid atmosphere / high relative humidity: stored at high, such as 75% or 90%, relative humidity in air at elevated temperature
[3] = Water solubility of crystal forms; assay type: physicochemical
[4] = test system: psychosis and other neuropsychiatric disorders; conditions: in vivo; cited from earlier work
Solubility in solvents = assay type: physicochemical

Structure (SMILES): CCCCCCOc1nsnc1C1=CCCN(C)C1 [Xanomeline]
efficacy in controlling psychosis and related behavioral disturbances [1]: efficacy in controlling psychosis and related behavioral disturbances
adverse motoric effects (schizophrenics; initial clinical studies in schizophrenics): did not induce adverse motoric effects
efficacy in treating schizophrenia (schizophrenics; schizophrenia): efficacious in treating schizophrenia
efficacy against positive and negative symptoms (schizophrenics; schizophrenics): efficacy against both positive and negative symptoms

Structure (SMILES): Clc1ccc2c(c1)N=C(N1CCNCC1)c1ccccc1N2 [8-chloro-11-(1-piperazinyl)-5H-dibenzo[b,e]-[1,4]diazepin]
stability of mixtures of crystal forms A and B [2]: very stable

Structure (SMILES): Clc1ccc2c(c1)N=C(N1CCNCC1)c1ccccc1N2 [NDMC, 8-chloro-11-(1-piperazinyl)-5H-dibenzo[b,e]-[1,4]diazepin]
effectiveness in the treatment of psychosis and other neuropsychiatric disorders [4]: effective in the treatment of psychosis and other neuropsychiatric disorders

More lines, main results first:

stability under humid atmosphere / high relative humidity [2]: very stable under humid atmosphere
Structure (SMILES): Clc1ccc2c(c1)N=C(N1CCNCC1)c1ccccc1N2 [Form A, 8-chloro-11-(1-piperazinyl)-5H-dibenzo[b,e]-[1,4]diazepin]
physical and chemical stability ([2]; form obtained at ambient temperatures): excellent physical and chemical stability properties
conversion to hydrated or other crystalline forms on storage [2]: does not convert to the hydrated forms or other crystalline forms
water solubility [3]: better water solubility than crystal form B

time to formation of Form B on contact with humidity ([2]; contacted with humidity): within hours
stability under exclusion of humidity ([2]; exclusion of humidity, ambient temperature): stable
solubility in solvents (Solubility in solvents): satisfying solubility in solvents
Structure (SMILES): Clc1ccc2c(c1)N=C(N1CCNCC1)c1ccccc1N2 [Form D, 8-chloro-11-(1-piperazinyl)-5H-dibenzo[b,e]-[1,4]diazepin]

stability at elevated temperatures or under dry nitrogen ([2]; elevated temperatures or dry nitrogen, loses its water and is transformed into Form D): unstable
stability under normal conditions ([2]; normal conditions, ambient temperatures): very stable
stability under humid atmosphere / high relative humidity [2]: very stable hydrate
water solubility [3]: specially water soluble
Structure (SMILES): Clc1ccc2c(c1)N=C(N1CCNCC1)c1ccccc1N2 [Form B, 8-chloro-11-(1-piperazinyl)-5H-dibenzo[b,e]-[1,4]diazepin]
conversion to hydrated or other crystalline forms on storage [2]: No conversion to other crystalline forms or hydrates was observed
